One test relates to HBV DNA. Description: HBV DNA assay (real-time qPCR of extracellular HBV DNA copy number, HepG2.2.15 cells). The test is classed as cell-based. To be noted: Hepatitis B virus, 144 h, six days, extracellular HBV DNA by qPCR, read-out: IC50 (Anti HBV DNA production activity). As to the method:
The assay employs real-time qPCR (TaqMan) to directly measure extracellular HBV DNA copy number. HepG2.2.15 cells were plated in 96-well microtiter plates. Only the interior wells were utilized to reduce “edge effects” observed during cell culture, the exterior wells were filled with complete medium to help minimize sample evaporation. On the following day, the HepG2.2.15 cells were washed and the medium was replaced with complete medium containing various concentrations of a test compound in triplicate. 3TC was used as the positive control, while media alone was added to cells as a negative control (virus control, VC). Three days later, the culture medium was replaced with fresh medium containing the appropriately diluted drug. Six days following the initial administration of the test compound, the cell culture supernatant was collected, treated with pronase and then used in a real-time qPCR/TaqMan assay to determine HBV DNA copy numbers. Antiviral activity was calculated from the reduction in HBV DNA levels (IC50).
Background: Real-time PCR tracks product formation cycle by cycle.

The subject of a further test is HBsAg. Description: microbe, parasite or virus in culture. Particulars: Hepatitis B virus, HepG2.2.15, read-out: IC50 (HBsAg secretion reduced by 50% compared to the no drug control).

Description for HBsAg: HepG2.2.15 cells (Acs et al. Proc Natl Acad Sci USA, 84, (1987), 4641-4), a constitutively HBV-expressing cell line were cultured in DMEM+Glutamax-I medium (Invitrogen, Carlsbad, Calif., USA), supplemented with 10% fetal bovine serum (Invitrogen) and G418 (Invitrogen) at a final concentration of 200 mg/L and maintained in 5% CO2 at 37° C.
HepG2.2.15 cells were seeded in duplicate into white, 96-well plates at 1.5×10^4 cells/well. The cells were treated with a three-fold serial dilution series of the compounds in DMSO. The final DMSO concentration in all wells was 1% and DMSO was used as no drug control.
The HBsAg chemiluminescence immunoassay (CLIA) kit (Autobio Diagnostics Co., Zhengzhou, China, Catalog number: CL0310-2) was used to measure the levels of secreted HBV antigens semi-quantitatively. For the detection 50 μL/well culture supernatant was used and HBsAg was quantified using HBsAg chemiluminescence immunoassay (CLIA) kit (Autobio Diagnostics Co., Zhengzhou, China, Catalog number: CL0310-2), 50 μL of the supernatant was transferred to the CLIA assay plate and 50 μL of enzyme conjugate reagent was added into each well. The plates were sealed and gently agitated for 1 hour at room temperature. The supernatant-enzyme-mixture was discarded and wells were washed 6 times with 300 μL of PBS. The residual liquid was removed by plating the CLIA plate right side down on absorbent tissue paper. 25 μL of substrates A and B were added to each well. Luminance was measured using a luminometer (Mithras LB 940 Multimode Microplate Reader) after 10 minutes incubation. Dose-response curves were generated and the IC50 value was extrapolated by using the E-WorkBook Suite (ID Business Solutions Ltd., Guildford, UK). The IC50 was defined as the compound concentration (or conditioned media log dilution) at which HBsAg secretion was reduced by 50% compared to the no drug control.

Take `COCCCOc1cc2c(cc1OC)-c1cc(=O)c(C(=O)O)cn1C(c1cc(C)cs1)C2` (stereo not shown) [Example 7, 10-methoxy-9-(3-methoxypropoxy)-6-(4-methyl-2-thienyl)-2-oxo-6,7-dihydrobenzo[a]quinolizine-3-carboxylic Acid]: the IC50 (in general, the midpoint of a concentration-inhibition curve) was below 32 nM with HBV DNA and 9 nM in the test with HBsAg.

In the case of `COc1cc2c(cc1OCC1CC1)CC(c1cccs1)n1cc(C(=O)O)c(=O)cc1-2` (stereo not shown) [Example 15, 9-(cyclopropylmethoxy)-10-methoxy-2-oxo-6-(2-thienyl)-6,7-dihydrobenzo[a]quinolizine-3-carboxylic Acid], the results for the IC50 with HBV DNA and with HBsAg were below 32 nM and 2 nM, respectively.

(Values after US10093671B2, “2-oxo-6,7-dihydrobenzo[a]quinolizine-3-carboxylic acid derivatives for the treatment and prophylaxis of hepatitis B virus infection” (Hoffmann-La Roche Inc., priority 2015, dated 2018).)
